Measured values from patent US20200016159A1, “N3-CYCLICALLY SUBSTITUTED THIENOURACILS AND USE THEREOF” (Bayer Aktiengesellschaft, priority 2016, published 2020).

Biological target: T1, human adenosine A2b receptor (Homo sapiens, UniProt P29275)
T1 sequence (P29275 1-332): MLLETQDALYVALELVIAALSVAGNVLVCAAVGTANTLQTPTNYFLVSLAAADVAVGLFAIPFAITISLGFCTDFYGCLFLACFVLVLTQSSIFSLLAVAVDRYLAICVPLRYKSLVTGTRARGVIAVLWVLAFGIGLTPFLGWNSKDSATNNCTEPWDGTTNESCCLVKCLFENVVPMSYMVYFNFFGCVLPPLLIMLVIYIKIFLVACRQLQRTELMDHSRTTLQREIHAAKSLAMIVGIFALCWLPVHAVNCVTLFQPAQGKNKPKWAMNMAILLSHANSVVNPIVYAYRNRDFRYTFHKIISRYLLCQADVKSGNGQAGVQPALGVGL
Test: Cellular in vitro reporter gene test for A2b receptor activity (antagonism of NECA)
Assay type: cell-based
Design: expressed in transfected cells; host or cells: CHO-K1 (Chinese hamster ovary) with CRE-luciferase reporter
Conditions: recombinant CHO-K1 cells, CRE-luciferase reporter, co-incubation with EC50 concentration of NECA, 3 hours
Procedure, shortened: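 Antagonism measured as block of NECA-induced, cAMP/CRE-dependent luciferase expression in recombinant A2b CHO-K1 cells. NECA used at the EC50 set in a pre-experiment on each test day; luminescence detected after 3 h. Reported as IC50, partly averaged and rounded to two significant figures.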

Compound	IC50 [nM]
Cc1c(Cn2nc[nH]c2=O)sc2c1c(=O)n(C1CC1)c(=O)n2CC1CCC(F)(F)C1 (single isomer, unassigned) [Example 211, 3-Cyclopropyl-1-[(3,3-difluorocyclopentyl)methyl]-5-methyl-6-[(5-oxo-4,5-dihydro-1H-1,2,4-triazol-1-yl)methyl]thieno[2,3-d]pyrimidine-2,4(1H,3H)-dione]	1300
Cc1c(CN2CCNC2=O)sc2c1c(=O)n([C@H]1C[C@@H]1C)c(=O)n2CC1CCC1 [Example 248, 1-(Cyclobutylmethyl)-5-methyl-3-[(1S,2S)-2-methylcyclopropyl]-6-[(2-oxoimidazolidin-1-yl)methyl]thieno[2,3-d]pyrimidine-2,4(1H,3H)-dione]	1.2
COCCn1c(=O)n(C2(C)CCC2)c(=O)c2c(C)c(CN3CCNC3=NC#N)sc21 [Example 140, [1-{[1-(2-Methoxyethyl)-5-methyl-3-(1-methylcyclobutyl)-2,4-dioxo-1,2,3,4-tetrahydrothieno[2,3-d]pyrimidin-6-yl]methyl}imidazolidine-2-ylidene]cyanamide]	230
CCC1CC1n1c(=O)c2c(C)c(Cn3nc[nH]c3=O)sc2n(CCOC)c1=O (single isomer, unassigned) [Example 305, 3-(2-Ethylcyclopropyl)-1-(2-methoxyethyl)-5-methyl-6-[(5-oxo-4,5-dihydro-H-1,2,4-triazol-1-yl)methyl]thieno[2,3-d]pyrimidine-2,4(1H,3H)-dione]	120
Cc1c(CN2CCNC2=NC#N)sc2c1c(=O)n(C1CC1)c(=O)n2CC1CCCO1 (racemic) [Example 41, [1-{[3-Cyclopropyl-5-methyl-2,4-dioxo-1-(tetrahydrofuran-2-ylmethyl)-1,2,3,4-tetrahydrothieno[2,3-d]pyrimidin-6-yl]methyl}imidazolidin-2-ylidene]cyanamide]	16
COCCn1c(=O)n(C2CC(F)(F)C2)c(=O)c2c(C)c(Cn3nc[nH]c3=O)sc21 [Example 129, 3-(3,3-Difluorocyclobutyl)-1-(2-methoxyethyl)-5-methyl-6-[(5-oxo-4,5-dihydro-H-1,2,4-triazol-1-yl)methyl]thieno[2,3-d]pyrimidine-2,4(1H,3H)-dione]	280
COCCn1c(=O)n(C2(C(F)(F)F)CC2)c(=O)c2c(C)c(Cn3nc[nH]c3=O)sc21 [Example 89, 1-(2-Methoxyethyl)-5-methyl-6-[(5-oxo-4,5-dihydro-1H-1,2,4-triazol-1-yl)methyl]-3-[1-(trifluoromethyl)cyclopropyl]thieno[2,3-d]pyrimidine-2,4(1H,3H)-dione]	1200
Cc1c(Cn2nc[nH]c2=O)sc2c1c(=O)n(C1(C)CC1)c(=O)n2CC1CCC1 [Example 62, 1-(Cyclobutylmethyl)-5-methyl-3-(1-methylcyclopropyl)-6-[(5-oxo-4,5-dihydro-1H-1,2,4-triazol-1-yl)methyl]thieno[2,3-d]pyrimidine-2,4(1H,3H)-dione]	65
Cc1c(Cn2nc[nH]c2=O)sc2c1c(=O)n(C1(C)CCC1)c(=O)n2CCC(F)(F)F [Example 138, 5-Methyl-3-(1-methylcyclobutyl)-6-[(5-oxo-4,5-dihydro-1H-1,2,4-triazol-1-yl)methyl]-1-(3,3,3-trifluoropropyl)thieno[2,3-d]pyrimidine-2,4(1H,3H)-dione]	260
Cc1c(Cn2cc[nH]c2=O)sc2c1c(=O)n(C1CC1)c(=O)n2CCC(F)(F)F [Example 14, 3-Cyclopropyl-5-methyl-6-[(2-oxo-2,3-dihydro-1H-imidazol-1-yl)methyl]-1-(3,3,3-trifluoropropyl)thieno[2,3-d]pyrimidine-2,4(1H,3H)-dione]	3.7
Cc1c(Cn2nc[nH]c2=O)sc2c1c(=O)n([C@H]1C[C@@H]1C)c(=O)n2CC(F)F [Example 320, 1-(2,2-Difluoroethyl)-5-methyl-3-[(S,2S)-2-methylcyclopropyl]-6-[(5-oxo-4,5-dihydro-1H-1,2,4-triazol-1-yl)methyl]thieno[2,3-d]pyrimidine-2,4(1H,3H)-dione]	13
Cc1c(CN2CCNC2=O)sc2c1c(=O)n(C1CC1C)c(=O)n2C (racemic) [Example 221, 1,5-Dimethyl-3-(2-methylcyclopropyl)-6-[(2-oxoimidazolidin-1-yl)methyl]thieno[2,3-d]pyrimidine-2,4(1H,3H)-dione]	3.3
Cc1c(CN2CCNC(=O)C2=O)sc2c1c(=O)n(C1(C)CCC1)c(=O)n2CCC(F)(F)F [Example 137, 6-[(2,3-Dioxopiperazin-1-yl)methyl]-5-methyl-3-(1-methylcyclobutyl)-1-(3,3,3-trifluoropropyl)thieno[2,3-d]pyrimidine-2,4(1H,3H)-dione]	77
Cc1c(Cn2nc[nH]c2=O)sc2c1c(=O)n([C@H]1C[C@@H]1C)c(=O)n2C [Example 220, 1,5-Dimethyl-3-[(1S,2S)-2-methylcyclopropyl]-6-[(5-oxo-4,5-dihydro-1H-1,2,4-triazol-1-yl)methyl]thieno[2,3-d]pyrimidine-2,4(1H,3H)-dione]	33
Cc1c(Cn2cc[nH]c2=O)sc2c1c(=O)n(C1CC1)c(=O)n2CC1CCCO1 (single isomer, unassigned) [Example 47, 3-Cyclopropyl-5-methyl-6-[(2-oxo-2,3-dihydro-H-imidazol-1-yl)methyl]-1-(tetrahydrofuran-2-ylmethyl)thieno[2,3-d]pyrimidine-2,4(1H,3H)-dione]	140
COCCn1c(=O)n(C2CC2(C)C)c(=O)c2c(C)c(CN3CCNC3=O)sc21 (single isomer, unassigned) [Example 105, 3-(2,2-Dimethylcyclopropyl)-1-(2-methoxyethyl)-5-methyl-6-[(2-oxoimidazolidin-1-yl)methyl]thieno[2,3-d]pyrimidine-2,4(1H,3H)-dione]	92
Cc1c(Cn2nc[nH]c2=O)sc2c1c(=O)n(C1(C)CC1)c(=O)n2CCC(F)(F)F [Example 60, 5-Methyl-3-(1-methylcyclopropyl)-6-[(5-oxo-4,5-dihydro-1H-1,2,4-triazol-1-yl)methyl]-1-(3,3,3-trifluoropropyl)thieno[2,3-d]pyrimidine-2,4(1H,3H)-dione]	15

The next lines start with the values.

IC50 [nM]	Compound
18	Cc1c(CN2CCNC2=NC#N)sc2c1c(=O)n(C1CC1)c(=O)n2CCCF [Example 7, [1-{[3-Cyclopropyl-1-(3-fluoropropyl)-5-methyl-2,4-dioxo-1,2,3,4-tetrahydrothieno[2,3-d]pyrimidin-6-yl]methyl}imidazolidin-2-ylidene]cyanamide]
18	COC(=O)N=C1NCCN1Cc1sc2c(c1C)c(=O)n([C@H]1C[C@@H](OC)C1)c(=O)n2CCC(F)(F)F [Example 156, Methyl [1-{[3-(cis-3-methoxycyclobutyl)-5-methyl-2,4-dioxo-1-(3,3,3-trifluoropropyl)-1,2,3,4-tetrahydrothieno[2,3-d]pyrimidin-6-yl]methyl}imidazolidin-2-ylidene]carbamate]
10	Cc1c(Cn2cc[nH]c2=O)sc2c1c(=O)n(C1(C)CC1)c(=O)n2CCC(F)(F)F [Example 214, 5-Methyl-3-(1-methylcyclopropyl)-6-[(2-oxo-2,3-dihydro-1H-imidazol-1-yl)methyl]-1-(3,3,3-trifluoropropyl)thieno[2,3-d]pyrimidine-2,4(1H,3H)-dione]
48	CO[C@H]1C[C@H](n2c(=O)c3c(C)c(CN4CCNC(=O)C4=O)sc3n(CCC(F)(F)F)c2=O)C1 [Example 147, 6-[(2,3-Dioxopiperazin-1-yl)methyl]-3-(trans-3-methoxycyclobutyl)-5-methyl-1-(3,3,3-trifluoropropyl)thieno[2,3-d]pyrimidine-2,4(1H,3H)-dione]
82	COCCn1c(=O)n([C@H]2C[C@H](OC)C2)c(=O)c2c(C)c(CN3CCNC3=O)sc21 [Example 149, 3-(trans-3-Methoxycyclobutyl)-1-(2-methoxyethyl)-5-methyl-6-[(2-oxoimidazolidin-1-yl)methyl]thieno[2,3-d]pyrimidine-2,4(1H,3H)-dione]
4.7	COC(=O)N=C1NCCN1Cc1sc2c(c1C)c(=O)n(C1CC(C)(C)C1)c(=O)n2CCC(F)(F)F [Example 166, Methyl [1-{[3-(3,3-dimethylcyclobutyl)-5-methyl-2,4-dioxo-1-(3,3,3-trifluoropropyl)-1,2,3,4-tetrahydrothieno[2,3-d]pyrimidin-6-yl]methyl}imidazolidin-2-ylidene]carbamate]
0.59	Cc1c(CN2CCNC2=O)sc2c1c(=O)n(C1CCC1)c(=O)n2CCC(F)(F)F [Example 110, 3-Cyclobutyl-5-methyl-6-[(2-oxoimidazolidin-1-yl)methyl]-1-(3,3,3-trifluoropropyl)thieno[2,3-d]pyrimidine-2,4(1H,3H)-dione]
36	COCCn1c(=O)n(C2CC(C)(C)C2)c(=O)c2c(C)c(CN3CCNC(=O)C3=O)sc21 [Example 172, 3-(3,3-Dimethylcyclobutyl)-6-[(2,3-dioxopiperazin-1-yl)methyl]-1-(2-methoxyethyl)-5-methylthieno[2,3-d]pyrimidine-2,4(1H,3H)-dione]
17	Cc1c(CN2CCNC2=O)sc2c1c(=O)n(C1CC1C)c(=O)n2C[C@H]1CCCO1 (stereo partly drawn) [Example 286, 5-Methyl-3-(2-methylcyclopropyl)-6-[(2-oxoimidazolidin-1-yl)methyl]-1-[(2R)-tetrahydrofuran-2-ylmethyl]thieno[2,3-d]pyrimidine-2,4(1H,3H)-dione]
